According to patent US20260125388A1 (priority 2022, published 2026):
In brackets after ≈: the same amount, converted by molar mass. Like-named read-outs stand apart in the source and are kept apart here.

How the values were obtained:
HEK293 cells = experiment: Cytotoxicity, CellTiter-Glo cell viability assay; type: cell-based, human; details: for Cytotoxicity LD50: HEK293 cells, CellTiter-Glo, Table 3; for LD50 HEK293: human kidney cells, Table 2
Protocol: Compounds with increased cytotoxicity can be identified using an in vitro cytotoxicity assay. Therefore, human embryonic kidney 293T (HEK293T) cell lines were purchased (ATCC) and cultured in 75 cm2 flasks (CellStar). Cells were grown in DMEM/High Glucose (Hyclone, #SH3024301) media to which non-essential amino acids (Hyclone, #SH30238.01), 10 mM HEPES (Hyclone, #SH302237.01), 5×106 units of penicillin and streptomycin (Hyclone, #SV30010), and 10% of heat inactivated fetal bovine serum (Gibco, #10082147) were added. Cells were harvested using 0.05% Trypsin (Hyclone, #SH3023601). The cell viability assay was evaluated using CellTiter-Glo™ Luminescent Cell Viability Assay Kit (Promega, Madison, WI), which contains luciferase and all its substrate except ATP. The controls for the cytotoxicity assay used were (E)-10-(bromotriphenylphosphoranyl)decyl 4-(4-(tert-butyl)phenyl)-4-oxobut-2-enoate (400 μM in DMSO, positive control) and DMSO (negative control). All luminescence readings were performed on a Tecan Infinite M1000 plate reader. Small volume transfers were performed on the Tecan Freedom EVO liquid handling system with a 100 nL pin tool transfer (V&P Scientific). Serial dilutions were done in 96-well polypropylene plates (Coming, #3365) and assays were conducted in 384-well white optical bottom plates. The assays were carried out in quadruplet in three independent runs. The data were normalized to the controls and if possible analyzed by nonlinear regression (GraphPad Prism).

GABAA receptor = GABAA receptor binding, competition assay with [3H]-flunitrazepam and rat brain membranes; details: for GABAAR binding, % inhibition at 10 μM: Table 3
Protocol: GABAA receptor binding: Rat brain membranes were prepared from frozen tissue that was thawed on ice and homogenized on ice in 10 volumes of cold lysis buffer (50 mM Tris HCl, pH 7.4, containing protease inhibitor cocktail from Roche) using a Polytron homogenizer (6 pulses and 10 seconds per pulse). The homogenate was centrifuged at 1,000×g for 10 min at 4° C. to obtain the supernatant. The supernatant was then centrifuged at 40,000×g for 20 min, and the resulting supernatant decanted and replaced with the same ice-cold lysis buffer. Two or three additional rounds of homogenization-centrifugation were performed to ensure thorough homogenization and also to wash out endogenous ligands. The final pellet was resuspended in the same buffer and homogenized one last time. […] Total binding and nonspecific binding were determined with reference compound clonazepam. […] Scintillation cocktail is then melted onto the microwave-dried filters on a hot plate and radioactivity counted in a Microbeta counter. The data (n=6) were analyzed by nonlinear regression.

[1] = Aqueous solubility, shake flask in PBS buffer; type: physicochemical; details: for Aqueous solubility: pH 7.2
Protocol: 5-50 mg of compound was added to 500 μL of PBS buffer at pH 7.4. The pH was adjusted if necessary, using a 1M NaOH solution. The solutions were vortexed for 10 s, sonicated for 2 min and agitated with a horizontal shaker in a closed vial for 24 h. The mixtures were transferred to an Eppendorf tube and centrifuged for 5 min at 16000×g followed by filtration through […] cellulose acetate spin X centrifuge filter (Costar). 200 μL of filtrate was transferred to a new Eppendorf tube and 200 μL of methanol was added and then subsequent dilution was made in 50:50 methanol/PBS buffer water if necessary. After mixing, 50 μL were transferred into a 384 well plate (Coring UV star, 781801) for UV detection at 250-600 nm (Tecan M1000). The assay was carried out with three independent samples of each compound. The concentration of each solution was determined with a calibration curve in 50:50 methanol/PBS buffer water. Absorbance of corresponding methanol PBS blank were recorded and subtracted from the absorbance of calibration curve solutions and from the samples.

[2] = parallel artificial membrane permeation assay at pH 7.4
Protocol: The artificial membrane was prepared by carefully pipetting 15 μL of the 5% (v/v) hexadecane in hexane solution to each of the wells of the donor plate. The plate was placed into a fume hood for 1 h to ensure complete evaporation of the hexane. After the hexane had evaporated, 300 μL of PBS with 5% (v/v) DMSO was added to each of the wells of the acceptor plate. The hexadecane treated donor plate was then placed on top of the acceptor plate taking care that the underside of the membrane is completely in contact with the solution in each of the acceptor wells. […] The lid was placed on the plates and the entire plate sandwich was placed into a closed humid environment. The container was then placed on a reciprocal shaker for agitation at about 100 rpm. The time at the beginning of the incubation was recorded, as this is a thermodynamic-based assay. The incubation was then allowed to continue for 18 h. The donor plate was removed and 50 μL of the acceptor solution was transferred to the UV plate. Drug solutions at the theoretical equilibrium concentration (100 μM) was also prepared and transferred to the UV plate. The absorbance of the solutions in the UV plate was then scanned from 250-600 nm with 1 nm steps and a 5 nm bandwidth. Log Pe was calculated as follows (Equation 1).

[3] = 3H-flunitrazepam, rat brain extract
[4] = read-out: GABAAR binding (IC50), value in brackets, 3H-flunitrazepam, rat brain extract, Table 3, unit inferred
[5] = [3H]-flunitrazepam, rat brain, Table 1

| SMILES | Cytotoxicity LD50 (HEK293 cells) [µM] | GABAAR binding, % inhibition at 10 μM (GABAA receptor; [3]) | IC50 (GABAA receptor; [4]) [nM] | Aqueous solubility [1] [µM] | Permeability (log Pe (cm/s)) [2] [cm/s] | LD50 HEK293 (HEK293 cells) [µM] | Aqueous solubility (footnote b: mM) ([1]; pH 7.2, cells marked b) | % Inhibition at 10 μM (GABAA receptor; [5]) [%] | IC50 (GABAA receptor; [5]) [nM] | solubility at 24 h ([1]; PBS buffer, aqueous buffer, thermodynamic from solid, pH 7.2, cells marked b, read-out: Aqueous solubility (footnote b: mM)) [mM] |
| --- | --- | --- | --- | --- | --- | --- | --- | --- | --- | --- |
| O=C1Nc2ccc(Br)cc2C(c2ccccc2F)=NC12CC2 [Compound 2] | >150 | 97% | 42 | 321 ± 19 | −5.6 ± 0.05 | – | – | – | – | – |
| O=C1Nc2ccc(Cl)cc2C(c2ccccc2F)=NC12CC2 [Compound 6] | >150 | 90% | 665 | 39 ± 3 | −5.2 ± 0.15 | – | – | – | – | – |
| CC1(C)N=C(c2ccccc2F)c2cc(Br)ccc2NC1=O [Compound 8] | >150 | 70% | 1250 | 319 ± 24 | −5.7 ± 0.01 | – | – | – | – | – |
| CCOC(=O)c1ncn2c1C1(CC1)N=C(c1ccccc1F)c1cc(Br)ccc1-2 [Compound 9] | >120 | 94% | 87 | 141 ± 20 | −5.1 ± 0.10 | – | – | – | – | – |
| CCOC(=O)c1ncn2c1C1(CCC1)N=C(c1ccccc1F)c1cc(Br)ccc1-2 [Compound 11] | 106 ± 9 | 19 (n.d.) % | – | 144 ± 7 | −5.8 ± 0.10 | – | – | – | – | – |
| CCOC(=O)c1ncn2c1C1(CCCC1)N=C(c1ccccc1F)c1cc(Br)ccc1-2 [Compound 12] | 96 ± 11 | 74% | 6220 | 141 ± 19 | −6.0 ± 0.06 | – | – | – | – | – |
| CCOC(=O)c1ncn2c1C1(CCCCC1)N=C(c1ccccc1F)c1cc(Br)ccc1-2 [Compound 13] | >150 | 34 (n.d.) % | – | 54 ± 2 | −5.6 ± 0.04 | – | – | – | – | – |
| CCOC(=O)c1ncn2c1C(C)(C)N=C(c1ccccc1F)c1cc(Br)ccc1-2 [Compound 15] | >150 | 78% | 733 | 103 ± 5 | −6.0 ± 0.12 | – | – | – | – | – |
| C#Cc1ccc2c(c1)C(c1ccccc1F)=NC1(CC1)c1c(C(=O)O)ncn1-2 [Compound 20, 8-ethynyl-6-(2-fluorophenyl)spiro[benzo[f]imidazo[1,5-a][1,4]diazepine-4,1′-cyclopropane]-3-carboxylic acid] | >300 | 55% | 59 | – | −6.7 ± 0.12 | >400 | 40.3 ± 0.5 ^b mM | – | – | – |
| C#Cc1ccc2c(c1)C(c1ccccc1F)=NC1(CCCC1)c1c(C(=O)O)ncn1-2 [Compound 21, 8-ethynyl-6-(2-fluorophenyl)spiro[benzo[f]imidazo[1,5-a][1,4]diazepine-4,1′-cyclopentane]-3-carboxylic acid] | – | – | – | – | – | >400 | – | 0 | – | – |
| O=C(O)c1ncn2c1C1(CC1)N=C(c1ccccc1F)c1cc(C3CC3)ccc1-2 [Compound 24, 8-cyclopropyl-6-(2-fluorophenyl)spiro[benzo[f]imidazo[1,5-a][1,4]diazepine-4,1′-cyclopropane]-3-carboxylic acid] | >300 | 58% | 1830 | – | −6.4 ± 0.04 | >400 | 12.8 ± 0.1 ^b mM | – | – | – |
| O=C(O)c1ncn2c1C1(CCCC1)N=C(c1ccccc1F)c1cc(C3CC3)ccc1-2 [Compound 25, 8-cyclopropyl-6-(2-fluorophenyl)spiro[benzo[f]imidazo[1,5-a][1,4]diazepine-4,1′-cyclopentane]-3-carboxylic acid] | – | – | – | – | – | >400 | – | 31.4 | – | – |
| O=C(O)c1ncn2c1C1(CC1)N=C(c1ccccc1F)c1cc(Br)ccc1-2 [Compound 26, 8-bromo-6-(2-fluorophenyl)spiro[benzo[f]imidazo[1,5-a][1,4]diazepine-4,1′-cyclopropane]-3-carboxylic acid] | >300 | 97% | 9 | – | −6.8 ± 0.09 | >400 | – | 97.0 | 9.1 | 8.2 (≈ 3500 µg/mL) |
| O=C(O)c1ncn2c1C1(CCC1)N=C(c1ccccc1F)c1cc(Br)ccc1-2 [Compound 27, 8-bromo-6-(2-fluorophenyl)spiro[benzo[f]imidazo[1,5-a][1,4]diazepine-4,1′-cyclobutane]-3-carboxylic acid] | >300 | 59% | 1830 | – | −6.6 ± 0.10 | >400 | 58.7 ± 4.4 ^b mM | 59.4 | 1830 | – |
| O=C(O)c1ncn2c1C1(CCCC1)N=C(c1ccccc1F)c1cc(Br)ccc1-2 [Compound 28, 8-bromo-6-(2-fluorophenyl)spiro[benzo[f]imidazo[1,5-a][1,4]diazepine-4,1′-cyclopentane]-3-carboxylic acid] | >300 | 2 (n.d.) % | – | – | −6.7 ± 0.04 | >400 | 46.7 ± 0.6 ^b mM | 23.8 | – | – |
| O=C(O)c1ncn2c1C1(CCCC1)N=C(c1ccccc1F)c1cc(Cl)ccc1-2 [Compound 31, 8-chloro-6-(2-fluorophenyl)spiro[benzo[f]imidazo[1,5-a][1,4]diazepine-4,1′-cyclopentane]-3-carboxylic acid] | – | – | – | – | – | >400 | – | 47.8 | – | – |
| O=C(O)c1ncn2c1C1(CCCC1)N=C(c1ccccc1F)c1ccccc1-2 [Compound 33, 6-(2-fluorophenyl)spiro[benzo[f]imidazo[1,5-a][1,4]diazepine-4,1′-cyclopentane]-3-carboxylic acid] | – | – | – | – | – | >400 | – | 4.7 | – | – |
